Data taken from US9604988B2, “Agent for treating or inhibiting recurrence of acute myeloid leukemia” (RIKEN, priority 2012, dated 2017).
Structures can show the parent of a compound that is named as a salt.

Legend:
[1] = biological target: HCK (Homo sapiens, UniProt P08631); assay: HCK kinase inhibition; type: biochemical
[2] = biological target: hERG (Homo sapiens, UniProt Q12809); assay: hERG inhibition (automated patch-clamp); type: cell-based
[3] = biological target: T1, FLT3-ITD (Homo sapiens, UniProt P36888, ITD); assay: FLT3-ITD kinase inhibition; type: biochemical
T1 sequence (P36888 27-993): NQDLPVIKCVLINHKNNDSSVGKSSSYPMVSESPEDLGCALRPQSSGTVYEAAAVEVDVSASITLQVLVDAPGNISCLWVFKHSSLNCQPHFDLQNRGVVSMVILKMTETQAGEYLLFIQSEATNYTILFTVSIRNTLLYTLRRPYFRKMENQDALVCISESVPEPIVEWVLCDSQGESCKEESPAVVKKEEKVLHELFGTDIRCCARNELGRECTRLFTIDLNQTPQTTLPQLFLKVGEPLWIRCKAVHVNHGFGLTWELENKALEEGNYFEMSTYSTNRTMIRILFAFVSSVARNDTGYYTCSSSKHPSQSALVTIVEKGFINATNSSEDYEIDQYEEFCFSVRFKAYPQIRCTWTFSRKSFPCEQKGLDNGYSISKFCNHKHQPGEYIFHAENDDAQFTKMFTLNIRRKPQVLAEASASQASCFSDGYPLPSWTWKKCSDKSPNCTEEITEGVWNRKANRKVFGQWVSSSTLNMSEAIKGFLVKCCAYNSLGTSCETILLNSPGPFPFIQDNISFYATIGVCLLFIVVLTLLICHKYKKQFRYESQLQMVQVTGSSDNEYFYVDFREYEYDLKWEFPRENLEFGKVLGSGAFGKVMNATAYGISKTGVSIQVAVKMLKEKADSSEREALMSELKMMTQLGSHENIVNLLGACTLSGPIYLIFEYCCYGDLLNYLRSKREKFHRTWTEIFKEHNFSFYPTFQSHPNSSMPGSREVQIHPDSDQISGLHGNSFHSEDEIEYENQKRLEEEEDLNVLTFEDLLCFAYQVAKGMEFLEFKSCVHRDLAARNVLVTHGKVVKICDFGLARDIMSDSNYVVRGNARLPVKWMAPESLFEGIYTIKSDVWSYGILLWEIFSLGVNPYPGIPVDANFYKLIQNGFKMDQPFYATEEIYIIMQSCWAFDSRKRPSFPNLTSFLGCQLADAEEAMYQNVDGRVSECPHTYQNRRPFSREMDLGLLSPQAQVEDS

Sequence of hERG (Q12809 whole entry): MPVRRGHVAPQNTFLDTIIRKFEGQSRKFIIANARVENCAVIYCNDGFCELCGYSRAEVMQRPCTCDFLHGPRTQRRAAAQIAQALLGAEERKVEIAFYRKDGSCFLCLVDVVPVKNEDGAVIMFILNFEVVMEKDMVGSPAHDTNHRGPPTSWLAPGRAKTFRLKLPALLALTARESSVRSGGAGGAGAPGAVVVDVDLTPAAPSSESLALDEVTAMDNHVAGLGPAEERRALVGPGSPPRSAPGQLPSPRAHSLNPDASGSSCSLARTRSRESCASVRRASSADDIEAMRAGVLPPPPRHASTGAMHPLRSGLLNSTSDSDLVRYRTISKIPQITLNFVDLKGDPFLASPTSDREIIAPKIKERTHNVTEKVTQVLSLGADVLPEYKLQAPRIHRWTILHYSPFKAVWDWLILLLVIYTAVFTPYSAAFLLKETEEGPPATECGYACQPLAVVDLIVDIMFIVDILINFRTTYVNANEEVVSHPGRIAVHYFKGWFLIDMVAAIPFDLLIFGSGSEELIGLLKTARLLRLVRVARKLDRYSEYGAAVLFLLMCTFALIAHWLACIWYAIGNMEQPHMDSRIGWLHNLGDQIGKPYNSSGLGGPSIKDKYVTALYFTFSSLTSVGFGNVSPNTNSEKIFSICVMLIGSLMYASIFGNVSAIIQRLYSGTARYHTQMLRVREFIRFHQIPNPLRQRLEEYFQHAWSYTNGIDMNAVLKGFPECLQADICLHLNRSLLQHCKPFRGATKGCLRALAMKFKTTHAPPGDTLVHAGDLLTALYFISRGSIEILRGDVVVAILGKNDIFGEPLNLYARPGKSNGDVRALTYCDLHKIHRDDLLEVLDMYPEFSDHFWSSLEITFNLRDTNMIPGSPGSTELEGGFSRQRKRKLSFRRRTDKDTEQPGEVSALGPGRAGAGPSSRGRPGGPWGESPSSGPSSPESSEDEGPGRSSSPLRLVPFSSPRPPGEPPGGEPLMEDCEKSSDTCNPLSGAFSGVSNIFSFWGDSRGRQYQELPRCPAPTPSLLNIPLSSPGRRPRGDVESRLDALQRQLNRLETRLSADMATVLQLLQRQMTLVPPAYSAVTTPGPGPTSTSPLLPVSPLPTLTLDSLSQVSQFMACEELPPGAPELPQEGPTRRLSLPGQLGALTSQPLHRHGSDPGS
Sequence of HCK (P08631 whole entry): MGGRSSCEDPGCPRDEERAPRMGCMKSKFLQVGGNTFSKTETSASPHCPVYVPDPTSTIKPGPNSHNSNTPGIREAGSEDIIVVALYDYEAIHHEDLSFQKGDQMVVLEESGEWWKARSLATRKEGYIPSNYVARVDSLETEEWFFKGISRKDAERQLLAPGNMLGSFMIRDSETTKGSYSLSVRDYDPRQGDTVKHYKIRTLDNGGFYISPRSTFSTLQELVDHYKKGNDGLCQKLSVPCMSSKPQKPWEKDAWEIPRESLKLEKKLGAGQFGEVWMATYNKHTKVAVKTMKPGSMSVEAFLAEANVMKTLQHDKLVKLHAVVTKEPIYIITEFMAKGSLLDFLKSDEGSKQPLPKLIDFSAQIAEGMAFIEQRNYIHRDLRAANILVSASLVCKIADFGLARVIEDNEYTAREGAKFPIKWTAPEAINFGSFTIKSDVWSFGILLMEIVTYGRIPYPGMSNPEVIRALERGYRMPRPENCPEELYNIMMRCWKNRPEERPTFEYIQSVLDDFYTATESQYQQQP

Row | Structure (SMILES) | IC50 [1] | inhibition at 10 µM [2] | IC50 [3]
1 | COCCN1CCN([C@H]2CC[C@H](n3cc(-c4ccc(Oc5ccccc5)cc4)c4c(N)ncnc43)CC2)CC1 [Example 40, 7-((trans)-4-(4-(2-Methoxyethyl)pyrazin-1-yl)cyclohexyl)-5-(4-phenoxyphenyl)-7H-pyrrolo[2,3-d]pyrimidin-4-amine] | 4 nM | 96% | 16 nM
2 | CN1CCN([C@H]2CC[C@H](n3nc(-c4ccc(Oc5ccccc5)cc4)c4c(N)ncnc43)CC2)CC1 [Example 59, 1-((trans)-4-(4-Methylpiperazin-1-yl)cyclohexyl)-3-(4-phenoxyphenyl)-1H-pyrazolo[3,4-d]pyrimidin-4-amine] | 3 nM | – | 55 nM
3 | COc1cc(-c2cn([C@H]3CC[C@H](N4CCn5c(cnc5C)C4)CC3)c3ncnc(N)c23)ccc1NC(=O)c1cc2ccccc2n1C [Example 36, N-(4-(4-amino-7-((trans)-4-(3-methyl-5,6-dihydroimidazolo[1,5-a]pyrazin-7(8H)-yl)cyclohexyl)-7H-pyrrolo[2,3-d]pyrimidin-5-yl)-2-methoxyphenyl)-1-methyl-1H-indole-2-carboxamide] | 4 nM | – | 409 nM
4 | Nc1ncnc2c1c(-c1ccc(Oc3ccccc3)cc1)cn2[C@H]1CC[C@@H](N[C@H]2CCNC2=O)CC1 [Example 53, (S)-3-(((cis)-4-(4-amino-5-(4-phenoxyphenyl)-7H-pyrrolo[2,3-d]pyrimidin-7-yl)cyclohexyl)amino)pyrrolidin-2-one] | – | 97% | 30 nM
5 | COc1cc(-c2nn([C@H]3CC[C@H](N4CCN(C)CC4)CC3)c3ncnc(N)c23)ccc1NC(=O)c1cc2ccccc2n1C [Example 14, N-(4-(4-amino-1-((trans)-4-(4-methylpiperazin-1-yl)cyclohexyl)-1H-pyrazolo[3,4-d]pyrimidin-3-yl)-2-methoxyphenyl)-1-methyl-1H-indole-2-carboxamide] | 0.77 nM | – | 2750 nM
6 | CC(C)(C)N1CCN([C@H]2CC[C@H](n3cc(-c4ccc(Oc5ccccc5)cc4)c4c(N)ncnc43)CC2)CC1 [Example 13, 7-((trans)-4-(4-(tert-Butyl)piperazin-1-yl)cyclohexyl)-5-(4-phenoxyphenyl)-7H-pyrrolo[2,3-d]pyrimidin-4-amine] | 8 nM | – | 17 nM
7 | Nc1ncnc2c1c(-c1ccc(Oc3ccccc3)cc1)cn2[C@H]1CC[C@H](NC(=O)c2cccnc2)CC1 [Example 19, N-((trans)-4-(4-amino-5-(4-phenoxyphenyl)-7H-pyrrolo[2,3-d]pyrimidin-7-yl)cyclohexyl)nicotinamide] | 11.9 nM | – | 108 nM
8 | CN1CCN([C@H]2CC[C@H](n3nc(-c4ccc(NC(=O)c5cc6ccccc6n5C)cc4)c4c(N)ncnc43)CC2)CC1 [Example 28, N-(4-(4-amino-1-((trans)-4-(4-methylpiperazin-1-yl)cyclohexyl)-1H-pyrazolo[3,4-d]pyrimidin-3-yl)phenyl)-1-methyl-1H-indole-2-carboxamide] | 1.6 nM | – | 1080 nM
9 | Nc1ncnc2c1c(-c1ccc(Oc3ccccc3)cc1)nn2[C@H]1CC[C@H](NC(=O)c2ccccn2)CC1 [Example 23, N-((trans)-4-(4-amino-3-(4-phenoxyphenyl)-1H-pyrazolo[3,4-d]pyrimidin-1-yl)cyclohexyl)picolinamide] | 12 nM | – | 548 nM
10 | Nc1ncnc2c1c(-c1ccc(Oc3ccccc3)cc1)cn2[C@H]1CC[C@H](NCc2ccncc2)CC1 [Example 44, 5-(4-phenoxyphenyl)-7-((trans)-4-((pyridin-4-ylmethyl)amino)cyclohexyl)-7H-pyrrolo[2,3-d]pyrimidin-4-amine] | – | 93% | 15 nM
11 | CC(C)N1CCN([C@H]2CC[C@H](n3cc(-c4ccc(Oc5ccccc5)cc4)c4c(N)ncnc43)CC2)CC1 [Example 42, 7-((trans)-4-(4-Isopropylpiperazin-1-yl)cyclohexyl)-5-(4-phenoxyphenyl)-7H-pyrrolo[2,3-d]pyrimidin-4-amine] | – | 88% | 22 nM
12 | Nc1ncnc2c1c(-c1ccc(Oc3ccccc3)cc1)cn2[C@H]1CC[C@H](N2CCN(CCO)CC2)CC1 [Example 41, 2-(4-((trans)-4-(4-Amino-5-(4-phenoxyphenyl)-7H-pyrrolo[2,3-d]pyrimidin-7-yl)cyclohexyl)piperazin-1-yl)ethan-1-ol] | – | 93% | 21 nM
13 | CN1CCN([C@H]2CC[C@H](n3cc(-c4ccc(NC(=O)c5cc6ccccc6n5C)cc4)c4c(N)ncnc43)CC2)CC1 [Example 17, N-(4-(4-amino-7-((trans)-4-(4-methylpiperazin-1-yl)cyclohexyl)-7H-pyrrolo[2,3-d]pyrimidin-5-yl)phenyl)-1-methyl-1H-indole-2-carboxamide] | 2.55 nM | – | 255 nM
14 | COc1cc(-c2cn([C@H]3CC[C@@H](N4CCn5nc(C)cc5C4)CC3)c3ncnc(N)c23)ccc1NC(=O)c1cc2ccccc2n1C [Example 37, N-(4-(4-amino-7-((cis)-4-(2-methyl-6,7-dihydropyrazolo[1,5-a]pyrazin-5(4H)-yl)cyclohexyl)-7H-pyrrolo[2,3-d]pyrimidin-5-yl)-2-methoxyphenyl)-1-methyl-1H-indole-2-carboxamide] | 7.7 nM | – | 3330 nM
15 | COc1cc(-c2cn([C@H]3CC[C@H](N4CCn5c(C)cnc5C4)CC3)c3ncnc(N)c23)ccc1NC(=O)c1cc2ccccc2n1C [Example 39, N-(4-(4-amino-7-((trans)-4-(3-methyl-5,6-dihydroimidazo[1,2-a]pyrazin-7(8H)-yl)cyclohexyl)-7H-pyrrolo[2,3-d]pyrimidin-5-yl)-2-methoxyphenyl)-1-methyl-1H-indole-2-carboxamide] | 4 nM | – | 4620 nM
16 | Nc1ncnc2c1c(-c1ccc(Oc3ccccc3)cc1)cn2[C@H]1CC[C@@H](NCC(=O)O)CC1 [Example 9, 2-(((cis)-4-(4-Amino-5-(4-phenoxyphenyl)-7H-pyrrolo[2,3-d]pyrimidin-7-yl)cyclohexyl)amino)acetic acid.trihydrochloride] | 16 nM | – | 23 nM
17 | COc1cc(-c2cn([C@H]3CC[C@@H](N4CCn5nccc5C4)CC3)c3ncnc(N)c23)ccc1NC(=O)c1cc2ccccc2n1C [Example 38, N-(4-(4-amino-7-((cis)-4-(6,7-dihydropyrazolo[1,5-a]pyrazin-5(4H)-yl)cyclohexyl)-7H-pyrrolo[2,3-d]pyrimidin-5-yl)-2-methoxyphenyl)-1-methyl-1H-indole-2-carboxamide] | 2.8 nM | – | 6580 nM
18 | Nc1ncnc2c1c(-c1ccc(Oc3ccccc3)cc1)cn2[C@H]1CC[C@H](N2CCn3c(nnc3C(F)(F)F)C2)CC1 [Example 58, 5-(4-Phenoxyphenyl)-7-((trans)-4-(3-(trifluoromethyl)-5,6-dihydro[1,2,4]triazolo[4,3-a]pyrazin-7(8H)-yl)cyclohexyl)-7H-pyrrolo[2,3-d]pyrimidin-4-amine] | 23 nM | – | 43 nM
19 | Nc1ncnc2c1c(-c1ccc(Oc3ccccc3)cc1)cn2[C@H]1CC[C@@H](NC(=O)c2ccncc2)CC1 [Example 12, N-((cis)-4-(4-5-(4-Phenoxyphenyl)-7H-pyrrolo[2,3-d]pyrimidin-7-yl)cyclohexyl)isonicotinamide] | 4 nM | – | 44 nM
20 | Nc1ncnc2c1c(-c1ccc(Oc3ccccc3)cc1)nn2[C@H]1CC[C@H](NC(=O)c2ccncc2)CC1 [Example 20, N-((trans)-4-(4-amino-3-(4-phenoxyphenyl)-1H-pyrazolo[3,4-d]pyrimidin-1-yl)cyclohexyl)isonicotinamide] | 7.9 nM | – | 414 nM
21 | Nc1ncnc2c1c(-c1ccc(Oc3ccccc3)cc1)cn2[C@H]1CC[C@H](NC(=O)c2ccccn2)CC1 [Example 18, N-((trans)-4-(4-amino-5-(4-phenoxyphenyl)-7H-pyrrolo[2,3-d]pyrimidin-7-yl)cyclohexyl)picolinamide] | 4.55 nM | – | 428 nM
22 | Nc1ncnc2c1c(-c1ccc(Oc3ccccc3)cc1)cn2[C@H]1CC[C@H](NCC(=O)O)CC1 [Example 3, 2-(((trans)-4-(4-Amino-5-(4-phenoxyphenyl)-7H-pyrrolo[2,3-d]pyrimidin-7-yl)cyclohexyl)amino)acetic acid.trihydrochloride] | 4.2 nM | – | 24 nM
23 | COc1cc(-c2cn([C@H]3CC[C@@H](N4CCN(C)CC4)CC3)c3ncnc(N)c23)ccc1NC(=O)c1cc2ccccc2n1C [Example 26, N-(4-(4-amino-7-((cis)-4-(4-methylpiperazin-1-yl)cyclohexyl)-7H-pyrrolo[2,3-d]pyrimidin-5-yl)-2-methoxyphenyl)-1-methyl-1H-indole-2-carboxamide] | 7.2 nM | – | 1330 nM
